Test results as given in PMC6225232, “Design, Synthesis and Biological Evaluation of Ligustrazine-Flavonoid Derivatives as Potential Anti-Tumor Agents” (Molecules : A Journal of Synthetic Chemistry and Natural …, 2018).

Key:
Format in all cases: cell-based, human
[1] = system: HT-29; assay: MTT cytotoxicity assay, HT-29
Procedure: (§1) Five kinds of tumor cell lines and one normal endothelial cell were routinely cultured respectively in RPMI 1640 medium supplemented with 10% (V/V) FBS and 1% (V/V) penicillin-streptomycin, incubated at 37 °C in a 5% CO2 containing incubator. The five tumor cell lines were plated onto 96-well sterile plates in 100 μL/well of medium at a density of 3.5 × 10^3 cells per well and incubated at 37 °C with 5% CO2 for 24 h. Then luteolin, baicalein, apigenin, chrysin, quercetin, fisetin, genistein, daidzein, naringenin, DDP and compounds 10–25 were added at various concentrations (5, 10, 20, 40, 50 μΜ). Each plate contained control group, blank group, drug group and positive group (DDP). After 72 h, 20 μL MTT in phosphate buffered saline (PBS, 5 mg/mL) was added to each well and the plates were incubated at 37 °C for 4 h, then removing the liquid and adding dimethyl sulfoxide (DMSO, 100 μL) to dissolve the MTT formazan. The optical density (OD) for each well was measured on a BIORAD 550 spectrophotometer plate reader (Bio-Gene Technology Ltd., Guangzhou, China) at a wavelength of 490 nm. All tests were carried out three times in parallel.

[2] = system: Bel-7402; assay: MTT cytotoxicity assay, Bel-7402
Procedure: as §1

[3] = system: HepG-2; assay: MTT cytotoxicity assay, HepG-2
Procedure: as §1

[4] = system: HeLa; assay: MTT cytotoxicity assay, HeLa; details: 72 h
Procedure: as §1

[5] = system: MCF-7; assay: MTT cytotoxicity assay, MCF-7
Procedure: as §1

[6] = system: Bel-7402 cells; assay: Morphological analysis using Giemsa and DAPI staining; details: 72 h
Procedure: The Bel-7402 cells were plated onto 12-well sterile plates at a density of 2.4 × 10^4 cells per well and incubated at 37 °C in a 5% CO2 containing incubator. Then the cells were incubated in the presence of compound 14 at various concentrations (0, 10, 20, 40 μΜ) for 72 h. Then cells were washed with PBS twice, fixed with cold ethanol and 4% paraformaldehyde (pH = 7.4) for 10 min respectively and washed with PBS again. Then fixed cells were stained with 6% Giemsa solution or DAPI at the concentration of 1 mg/mL for 5 min in the dark. Finally, the cells washed with water and dried. The cell morphological changes were observed by fluorescent microscopy and images were captured by digital camera.

[7] = system: Bel-7402 cells; assay: Apoptosis analysis by flow cytometry, Annexin V-FITC/PI staining; details: 72 h, control 5.4%
Procedure: The Bel-7402 cells were plated onto 6-well sterile plates (4.8 × 10^4 cells/well) and placed at 37 °C with 5% CO2 for 24 h. Then compound 14 at various concentrations (0, 5, 10, 20 μΜ) was added. After 72 h, all cells were collected respectively with the right amount of trypsin (without EDTA) digestion. Then the cells were washed with cold PBS twice and centrifuged at 1000 rpm for 5 min. The harvested cells were resuspended in 200 μL binding buffer, which contained 10 μL Annexin V-FITC and PI. After avoided light reaction for 15 min, the cells were analyzed with a flow cytometer.

[8] = system: HUVEC-12; assay: MTT cytotoxicity assay using HUVEC-12 cell; details: for Proliferation Rate (%) 2.5 μM / Proliferation Rate (%) 5 μM / Proliferation Rate (%) 10 μM / Proliferation Rate (%) 20 μM / Proliferation Rate (%) 40 μM: HUVEC-12, 24 h, negative = inhibition; for IC50: MTT, 24 h
Procedure: Five kinds of tumor cell lines and one normal endothelial cell were routinely cultured respectively in RPMI 1640 medium supplemented with 10% (V/V) FBS and 1% (V/V) penicillin-streptomycin, incubated at 37 °C in a 5% CO2 containing incubator.
The HUVEC-12 cell were seeded in 96-well plates (6.0 × 10^3 cells/ well), and incubated at 37 °C in a 5% CO2 containing incubator. After 24 h, the medium was replaced with fresh medium containing the compounds to be tested. Compounds 14, 19 and DDP were added in final concentrations ranging from 2.5 to 40 μM. Each plate contained control group, blank group and drug group. After 24 h, 20 μL MTT was added to each well and the plates were incubated at 37 °C for 4 h, then removing the liquid and adding dimethyl sulfoxide (DMSO) (100 μL) to dissolve the MTT formazan. The optical density (OD) for each well was measured on a BIORAD 550 spectrophotometer plate reader at a wavelength of 490 nm. All tests were carried out three times in parallel. The proliferation inhibition rates of tumor cells were calculated by {1 − [OD490 (Drug group) − OD490 (Blank group)]/[OD490 (Control group) − OD490 (Blank group)]} × 100%.

| SMILES | IC50 ([1]; Homo sapiens, HT-29, 72 h) [µM] | IC50 ([2]; Homo sapiens, Bel-7402, 72 h) [µM] | IC50 ([3]; Homo sapiens, HepG2, 72 h) [µM] | IC50 ([4]; Homo sapiens) [µM] | IC50 ([5]; Homo sapiens, MCF7, 72 h) [µM] | other results |
| --- | --- | --- | --- | --- | --- | --- |
| O=c1cc(-c2ccc(O)cc2)oc2cc(O)cc(O)c12 [Apigenin] | 23.4 ± 1.89 | 28.2 ± 0.38 | 16.1 ± 1.52 | 30.6 ± 0.71 | 29.7 ± 1.43 |  |
| O=c1cc(-c2ccccc2)oc2cc(O)c(O)c(O)c12 [Baicalein] | 19.2 ± 2.72 | 21.6 ± 3.68 | 20.4 ± 2.07 | 22.8 ± 3.54 | 37.9 ± 1.52 |  |
| O=c1cc(-c2ccccc2)oc2cc(O)cc(O)c12 [Chrysin] | 30.3 ± 1.96 | 35 ± 1.46 | 15.6 ± 0.3 | > 40 | 32.1 ± 2.78 |  |
| Cc1nc(C)c(COc2cc(O)c3c(=O)cc(-c4ccccc4)oc3c2)nc1C [Compound 10, 5-Hydroxy-2-phenyl-7-((3,5,6-trimethylpyrazin-2-yl)methoxy)-4H-chromen-4-one] | > 40 | > 40 | > 40 | 26.7 ± 0.34 | > 40 |  |
| Cc1nc(C)c(COc2cc3oc(-c4ccccc4)cc(=O)c3c(OCc3nc(C)c(C)nc3C)c2OCc2nc(C)c(C)nc2C)nc1C [Compound 13, 2-Phenyl-5,6,7-tris((3,5,6-trimethylpyrazin-2-yl)methoxy)-4H-chromen-4-one] | 22.4 ± 0.35 | 26.13 ± 0.11 | 13.4 ± 2.5 | 17.3 ± 1.07 | > 40 |  |
| Cc1nc(C)c(COc2ccc(/C=C/C(=O)c3c(O)cc(OCc4nc(C)c(C)nc4C)cc3OCc3nc(C)c(C)nc3C)cc2)nc1C [Compound 14, (E)-1-(2-Hydroxy-4,6-bis((3,5,6-trimethylpyrazin-2-yl)methoxy)phenyl)-3-(4-((3,5,6-trimethylpyrazin-2-yl)methoxy)phenyl)prop-2-en-1-one] | 31.9 ± 1.96 | 10.5 ± 1.12 | 17.3 ± 0.47 | 25.1 ± 1.8 | 29.8 ± 2.18 | IC50 ([2]; 72 h): 10.7 ± 1.12 µM; cell morphology, Giemsa staining ([6]; Bel-7402, 40 μM): mainly cell fragments rather than complete cells; cell morphology, DAPI staining ([6]; Bel-7402, 10, 20, 40 μM): morphological features of apoptosis; apoptosis ratio (early and late) ([7]; Bel-7402, 10 μM): 45.5%; apoptosis ratio (early and late) ([7]; Bel-7402, 20 μM): 54.6%; Proliferation Rate (%) 2.5 μM [8]: 1.62 ± 0.75%; Proliferation Rate (%) 5 μM [8]: 1.99 ± 0.23%; Proliferation Rate (%) 10 μM [8]: 14.84 ± 1.41%; Proliferation Rate (%) 20 μM [8]: 16.71 ± 0.29%; Proliferation Rate (%) 40 μM [8]: −2.32 ± 1.37%; IC50 ([8]; Homo sapiens): > 40 µM |
| Cc1nc(C)c(COc2ccc(/C=C/C(=O)c3c(OCc4nc(C)c(C)nc4C)cc(OCc4nc(C)c(C)nc4C)cc3OCc3nc(C)c(C)nc3C)cc2)nc1C [Compound 16, (E)-3-(4-((3,5,6-Trimethylpyrazin-2-yl)methoxy)phenyl)-1-(2,4,6-tris((3,5,6-trimethylpyrazin-2-yl)-methoxy)phenyl)prop-2-en-1-one] | 34.4 ± 2.32 | > 40 | 20.6 ± 1.39 | 30.5 ± 2.62 | 16.5 ± 0.45 |  |
| Cc1nc(C)c(COc2ccc(-c3coc4cc(OCc5nc(C)c(C)nc5C)cc(O)c4c3=O)cc2)nc1C [Compound 17, 5-Hydroxy-7-((3,5,6-trimethylpyrazin-2-yl)methoxy)-3-(4-((3,5,6-trimethylpyrazin-2-yl)methoxy)-phenyl)-4H-chromen-4-one] | 10.7 ± 1.35 | > 40 | > 40 | > 40 | > 40 |  |
| Cc1nc(C)c(COc2ccc(-c3coc4cc(O)ccc4c3=O)cc2)nc1C [Compound 19, 7-Hydroxy-3-(4-((3,5,6-trimethylpyrazin-2-yl)methoxy)phenyl)-4H-chromen-4-one] | 11.7 ± 1.29 | 28.9 ± 0.49 | 14.5 ± 0.48 | 14.3 ± 1.17 | 10.4 ± 1.23 | Proliferation Rate (%) 2.5 μM [8]: −8.75 ± 0.38%; Proliferation Rate (%) 5 μM [8]: −19.35 ± 0.35%; Proliferation Rate (%) 10 μM [8]: −19.49 ± 2.17%; Proliferation Rate (%) 20 μM [8]: −24.22 ± 3.19%; Proliferation Rate (%) 40 μM [8]: −25.07 ± 1.02%; IC50 ([8]; Homo sapiens): > 40 µM |
| Cc1nc(C)c(COc2ccc(-c3coc4cc(OCc5nc(C)c(C)nc5C)ccc4c3=O)cc2)nc1C [Compound 20, 7-((3,5,6-Trimethylpyrazin-2-yl)methoxy)-3-(4-((3,5,6-trimethylpyrazin-2-yl)methoxy)phenyl)-4H-chromen-4-one] | 10.9 ± 2.3 | 25.2 ± 1.72 | > 40 | 16.5 ± 1.79 | > 40 |  |
| N.N.[Cl][Pt][Cl] [DDP, reference compound] |  |  |  |  |  | IC50 ([1]; 72 h): 5.83 ± 0.59 µM; IC50 ([2]; 72 h): 6.73 ± 0.37 µM; IC50 ([3]; 72 h): 4.14 ± 0.16 µM; IC50 [4]: 4.76 ± 0.41 µM; IC50 ([5]; 72 h): 6.75 ± 0.57 µM; Proliferation Rate (%) 2.5 μM [8]: −23.93 ± 0.75%; Proliferation Rate (%) 5 μM [8]: −31.38 ± 1.46%; Proliferation Rate (%) 10 μM [8]: −58.24 ± 0.82%; Proliferation Rate (%) 20 μM [8]: −66.58 ± 1.75%; Proliferation Rate (%) 40 μM [8]: −82.69 ± 2.19%; IC50 [8]: 9.11 ± 0.54 µM |
| O=c1c(-c2ccc(O)cc2)coc2cc(O)ccc12 [Daidzein] | > 40 | > 40 | 21.8 ± 1.53 | > 40 | 36.8 ± 1.48 |  |
| O=c1c(O)c(-c2ccc(O)c(O)c2)oc2cc(O)ccc12 [Fisetin] | 23.9 ± 0.81 | 25.5 ± 1.54 | 17.4 ± 1.04 | 20.9 ± 1.65 | 38.1 ± 1.83 |  |
| O=c1c(-c2ccc(O)cc2)coc2cc(O)cc(O)c12 [Genistein] | 31.13 ± 0.26 | 34.7 ± 0.63 | 19.8 ± 1.31 | 34.6 ± 2.52 | 35.6 ± 1.38 |  |
| O=c1cc(-c2ccc(O)c(O)c2)oc2cc(O)cc(O)c12 [Luteolin] | 19.2 ± 1.17 | 14.5 ± 0.68 | 11.8 ± 0.44 | 21.3 ± 1.12 | 17 ± 0.31 |  |
| O=c1c(O)c(-c2ccc(O)c(O)c2)oc2cc(O)cc(O)c12 [Quercetin] | 27 ± 0.47 | 30.4 ± 2.51 | 13.6 ± 0.73 | 20.8 ± 4.04 | > 40 |  |
